± gives the expanded uncertainty stated by the source.
Settings: DTA

CCn1cc[n+](C)c1.NCC(=O)[O-] [1-ethyl-3-methylimidazolium ammonioacetate]
Glass transition temperature: -62.0 ± 3 °C

— the NIST ThermoML archive (doi:10.1021/je700599z)
